A short description of one series: Pharmacokinetics in rat. Format: in vivo, Sprague-Dawley (SD) rats. Particulars: mouse and rat, 25 mg/kg. The procedure:
After 7 days acclimation, male Sprague-Dawley (SD) rats weighing 210-250 g, or male C57BL/6 mice, weighing 19-24 g, in good health were used in the study. Peptide 1, Peptide 12 and Peptide 16 were dissolved in sterile normal saline and then they were injected via subcutaneous (sc) bolus or intravenous (iv) bolus at the dose level of 25 mg/kg. Three animals in each group were used for blood collection at the time point of 5 min, 15 min, 30 min, 1 h, 2 h, 4 h, 6 h, 8 h and 24 h post-dose. Blood samples (approximately 400 μL) were collected and placed into tubes containing EDTA-K2 and centrifuged at 8000 rpm for 6 minutes at 4° C. to separate plasma front the samples. The resulting plasma was stored frozen at −80° C. until being analyzed. Plasma concentrations of peptides were determined using tandem mass spectrometry (LC-MS/MS) analysis. A non-compartmental module of WinNonlin® Professional 5.2 (Pharsight; St. Louis, Mo.), was used to calculate PK parameters. The abbreviation AUC(0-t) represents area under the curve front the time of dosing to the time of the last observation, the AUC(0-∞) represents area under the curve from the time of dosing to infinity, and the Cmax represents maximum concentration detected.

A further series concerns pancreatic islets. The series can be described thus: Glucose-stimulated insulin secretion (GSIS) of isolated islets. Format: cell-based, Sprague-Dawley (SD) rats. Particulars: rat islets, 12.0 mM glucose, 10 μg/mL peptide (GLP-1 100 nM), 60 min, FIG. 8. Here is the method: The pancreases were procured from male adult Sprague-Dawley (SD) rats. After 7 days acclimation, the animals were sacrificed by cervical dislocation and the entire pancreas was removed and digested with collagenase to isolate islets. After digestion, islets were maintained at 37° C. in RPMI 1640 (Carlsbad, Calif., USA) pH 7.4, containing 10% (v/v) fetal calf serum, 1% penicillin/streptomycin, and 10 mM glucose in a humid atmosphere (5% CO2/95% O2), without the addition of any compound (control), or with the addition of 100 nM glucagon like peptide-1 (GLP-1); or 10 μg/mL Peptide 1, Peptide 12, or Peptide 16, as summarized in Table 4 below. Cultured islets were rinsed in Krebs-Ringer bicarbonate buffer (KRB), pH 7.4, previously gassed with a mixture CO2/O2 (5/95%), and pre-incubated in 1.0 ml KRB containing 0.5% (w/v) BSA and 1.5 mM glucose at 37° C. for 45 min. After this period, groups of 5 islets were incubated in 0.6 ml KRB with the addition of 1.5 or 12.0 mM glucose, with or without the addition of peptides for 60 min. At the end of the incubation period, aliquots of the medium were collected for insulin quantitation.

Series [1] is described as follows: Peptide stability in mouse plasma. In kind it is in vitro ADME. Particulars: 100 μg/mL, 37° C., LC-MS/MS, FIG. 3 and FIG. 5. Here is the method: (§1) The stability of peptides was also tested in mouse and human plasma. Briefly, a certain amount of peptides and eucatropine powder (positive control) was accurately weighed. Test compounds were dissolved in 50% methanol-water solution and diluted to 20 mg/mL, and eucatropine was dissolved in dimethylsulfoxide (DMSO) and diluted to 10 mM, as a stock solution. Eucatropine stock solution was diluted to 0.2 mM with DMSO as a working solution. A stop reagent was prepared containing 200 ng/mL midazolam and tolbutamide in acetonitrile. A volume of 300 μL of stop solution was added to each well of a 96-well deep-well plate placed on ice beforehand.
(§2) For the stability studies, peptides and eucatropine were spiked into plasma respectively, mixed well, and then 100 μL of each mixture solution was transferred into the pre-cooled stop reagent as 0 time point sample. The remaining mixtures were incubated in a 37° C. water bath with shaking at 100 rpm (n=2). The final incubation concentration was 1 μM for eucatropine and 100 μg/mL for all test compounds.
At desired time points, 100 μl, of incubation mixture was transferred to the stop reagent to precipitate proteins. Samples were vortexed and centrifuged at RCF 5000-g for 10 minutes, and supernatant was transferred to a test plate. The samples were analyzed by LC-MS/MS.
Slope was calculated by plotting the natural logarithm of the percentage or remaining amount of test compounds and time, and T12 was calculated in accordance with the following formula.
For stability in mouse plasma, the incubation time was 0, 5, 15, 30 and 60 min for Peptide 1 and eucatropine, 0, 15, 30, 60, 120, 240 and 480 min for Peptide 12, Peptide 16 and Peptide 29.
In another stability study in mouse plasma, the incubation time was 0, 30, 60 and 120 min for Peptide 2 and eucatropine; 0, 30, 60, 120, 240 and 960 min for Peptide 52 and Peptide 54.

The nature of series [2]: Peptide stability in human plasma. Format: in vitro ADME. Particulars: 100 μg/mL, 37° C., 0-120 min, FIG. 4. The procedure: as §1, §2
At desired time points, 100 μl, of incubation mixture was transferred to the stop reagent to precipitate proteins. […] The samples were analyzed by LC-MS/MS.
Slope was calculated by plotting the natural logarithm of the percentage or remaining amount of test compounds and time, and T12 was calculated in accordance with the following formula. […]

In another series the test system is ARIP cells. The series can be described thus: ARIP cell proliferation (BrdU ELISA / CellTiter-Glo). Particulars: 100 nM peptide, FIG. 1. In kind it is cell-based, rat. Here is the method:
To measure cell proliferation, a bromodeoxyuridine (BrdU) ELISA assay was performed. Briefly, ARIP cells (ATCC (American Type Culture Collection), Manassas, Va. USA), a rat pancreatic ductal cell line, were cultured in F-12K medium (Gibco-BRL, Gaithersburg, Md., USA) containing 10% fetal bovine serum (FBS; HyClone, Thermo Fisher Scientific Inc.; Waltham, Mass. USA), 100 μg/ml streptomycin and 100 μg/ml penicillin in a cell incubator. ARIP cells were seeded into 96-well culture plates at 8000 or 0 (as blank control) cells/well in a volume of 50 μl cell culture medium and incubated overnight for the following experiments. On the second day, after replacing the medium with medium without serum, 50 μl serum-free cell culture medium containing test peptides at a series concentrations (final concentrations were 10 μM, 5 μM, 1 μM, 500 nM, 100 nM, 50 nM, 10 nM and 1 nM) were added to seeded cells. Medium without compound was added to negative control and background control wells. […] The absorbance at 450 nm (reference wavelength 690 nm) on an EnVision™ plate reader (Perkin Elmer, Boston, Mass.) within 5 min. after adding the stop solution was measured.
To test for cell viability, a CellTiter-Glo™ (CTG) assay (Promega, Madison, Wis.) was performed. […] Luminescence signal was quantified on an EnVision™ plate reader after a 10 minute incubation at room temperature.
(In general: Uptake of a labelled nucleoside into DNA is a usual measure of proliferation.)

Series [3] in a line: Peptide stability in culture medium. Format: physicochemical. Particulars: F-12K medium, 0.25 mg/mL, 37° C., 0-72 hours, HPLC, FIG. 2. Here is the method:
To determine the stability of peptides in culture medium, a certain amount of selected peptides was accurately weighed and dissolved in distilled water to 5 mg/mL as a stock solution. The stock solution was diluted to 0.25 mg/mL with F-12K medium (Gibco-BRL, Gaithersburg, Md., USA) as working solution. A volume of 100 μL of each working solution was transferred into individual sample vials. The sample vials were incubated in a 37° C. incubator for 0, 24, 48 and 72 hours before being analyzed and quantitated by HPLC.

In series [4] the test system is STZ induced diabetic mice model. The series can be described thus: Efficacy in streptozotocin (STZ) induced diabetic mice model. In kind it is in vivo, C57BL/6J mice. The procedure: After acclimatization in the animal facility for one week, 6-8 weeks old C57BL/6J mice were administered low dose STZ at 40 mg/kg in citrate buffer for 5 consecutive days to establish a TID animal model. Mice with blood glucose greater than 16.7 mmol/L at 5 days post last STZ injection were included in the study. These mice were then treated with INGAP-PP (Peptide 1) or Peptide 7 at the closes of 5 mg/kg (2.5 mg/kg, bid (twice a day)) or 25 mg/kg (12.5 mg/kg, bid) for 20 days before sacrifices. Two additional groups of diabetic mice were administered either saline or a peptide (Peptide 3) composed of a scrambled sequence of amino acids from Peptide 1 as control groups. Blood glucose and insulin levels were measured, and 20 days post the last dosing of test agents, an oral glucose tolerance test (OGTT) was performed in 6 hour fasted animals to determine the effect of Peptide 1 and Peptide 7. Blood samples obtained from the tail cut for glucose determination were detected with an ACCU-CHEK™ glucometer (Roche, ACCU-CHEK® Active), and insulin levels were determined with Rat/Mouse Insulin Elisa kit (Millipore, Billerica, Mass. USA). For the OGTT, after the measurement of the basal glucose concentration (T=−30 min), mice received an oral glucose challenge at 2 g/kg and glucose values were determined by glucometer at 0, 15, 30, 60, 90 and 120 min.

The subject of another series is normal C57BL/6J mice. The series can be described thus: Induction of small β-cell clusters in normal mice. Format: in vivo. Here is the method:
After a 1-week acclimation, C57BL/6J female mice were randomly divided into 4 groups. The two control groups received either 10 mL/kg sterile normal saline (n=4) or scrambled peptide (Peptide 3, 25 mg/kg) (n=5) via subcutaneous injection for 10 days. The other two groups received INGAP-PP (Peptide 1) or INGAP-PP analog Peptide 7 at a dose of 25 mg/kg per day respectively (n=7 per group) for the same period. Body weight and 6 hour fasting blood glucose were measured before treatment and after the last dosing of treatment. Plasma and pancreatic insulin were also measured at the end of the study. On day 11, the pancreas was removed from each animal, cleared of fat and lymph nodes, weighed, and fixed in 10% neutral buffered formalin (NBF) for no longer than 24 hours before processing for morphometric analysis.
Immunohistochemistry analysis was used to determine pancreatic islet size distribution.

Here are results for 2 substances from US10899815B2, “Compositions and methods of using islet neogenesis peptides and analogs thereof” (SHENZHEN HIGHTIDE BIOPHARMACEUTICAL, LTD., priority 2013, dated 2021).

For “Ac-IGLHDPSHGTLPNGS-OH [Peptide 16, Ac-IGLHDPSHGTLPNGS-OH]”, the “PK properties (AUC and Cmax) compared to INGAP-PP” value in “Pharmacokinetics in rat” was “marked improved PK properties”. Besides, the “glucose-stimulated insulin secretion versus islets without peptides” value with pancreatic islets is reported as “released significantly more insulin”. For the same substance, the “stability in mouse plasma” value in series [1] is “good stability in mouse plasma and were more stable than INGAP-PP”. The “stability in human plasma” value in series [2] was “good stability in human plasma and were significantly more stable than INGAP-PP”.
As for “H-IGLHDPSHGTLPAGS-OH [Peptide 7, H-IGLHDPSHGTLPAGS-OH]”, the “percentage increase in cell number” value in the series on ARIP cells is listed as “significantly higher percentage increase in cell number”. In addition, the “stability in culture medium” value in series [3] was “significantly more stable than INGAP-PP peptide”. Besides, the “body weight or pancreas weight” value in series [4] (5 mg/kg or 25 mg/kg for 20 days) was “did not affect”. In series [4] (25 mg/kg dose group, end of 20-day period, FIG. 6B), the plasma insulin levels result is “significantly different from saline controls and almost restored to the level of the naive group”. Moreover, the “glucose tolerance (OGTT)” value in series [4] (OGTT 2 g/kg glucose, day 21, FIG. 6C) is given as “improved glucose tolerance”. For the same substance, the “number of islets, islet size ranging from 2.1 to 0.7” value in the series on normal C57BL/6J mice (normal female C57BL/6J mice, 25 mg/kg per day for 10 days, islet size as Log [μm^2], FIG. 7) is given as “increased significantly”. Also, the “body weight, blood glucose, plasma insulin, pancreas insulin, or pancreas weight” value with normal C57BL/6J mice (normal mice, 25 mg/kg sc for 10 days, compared to saline group) is given as “did not affect”.
